Where “and” joins values, the source holds several entries; their conditions need not be identical. Equal entries are not always repeated. Entries after “also recorded” stand apart in the source; their conditions may differ.
How the values were obtained:
[1] = Serum drug concentration by LC-MS/MS in ovariectomized mice; type: in vivo; conditions: female, mouse, oral, 28 days
Protocol: (§1) Six to eight week old female mice (n=5-7) purchased from JAX® Mice were ovariectomized (OVX) or sham operated. Twenty days after OVX, treatment was initiated as outlined in the table below. Compounds of Formulas IX and VIII were dissolved in DSMO/PEG 300 (15:85) and were administered by oral gavage. Body weight and MRI measurements, to evaluate total body lean mass, were recorded at the beginning and at the end of the treatment. The animals were treated for twenty-eight days and then sacrificed, pelvic floor muscles isolated, weighed and stored for RNA and protein extraction. The expression of genes involved in catabolism and anabolism of muscle was measured by mRNA analysis. The serum concentrations of the drugs were measured by LC-MS/MS. The statistical analysis was performed using JMP Pro® software utilizing one way analysis of variance.
After samples were thawed, a 100 μL aliquot of mouse serum from each sample was mixed with 200 μL acetonitrile containing 200 nM compound of Formula XIII as the internal standard. After each sample was thoroughly vortex for 15 seconds, the sample was centrifuged at 3000 rpm for 10 min. Approximately 200 μL supernatant was transferred for LC-MS/MS analysis
Stock solutions of compounds of Formulas IX and VIII were 100 μM in DMSO. A dilution of 1:50 with control mouse serum was made and 200 μL of 2 μM was added to the first micro centrifuge tube. […] Transferred 100 μL from tube 1 (2 μM) to tube 2, vortexed and continued the 2 fold dilution through tube 7. 200 μL of acetonitrile containing 200 nM compound of Formula XIII as the internal standard was added to each tube. After vortexing and centrifuging, 200 μL was transferred to LC-MS/MS analysis. The concentration of each standard curve ranged from 1 μM to 0.0078 μM.
The analysis of compounds of Formulas IX and VIII in serum was performed using LC-MS/MS system consisting of Agilent 1100 HPLC with an MDS/Sciex 4000 Q-Trap™ mass spectrometer. The separation was achieved using a C18 analytical column (Alltima™, 2.1×100 mm, 3 μm) protected by a C18 guard column (Phenomenex™ 4.6 mm ID cartridge with holder). Mobile phase was consisting of channel A (95% acetonitrile+5% water+0.1% formic acid) and channel C (95% water+5% acetonitrile+0.1% formic acid) and was delivered isocratically at a flow rate of 0.4 mL/min. The total runtime for compound of Formula IX was 4.5 min, and the volume injected was 10 μL. The total runtime for compound of Formula VIII was also 4.5 min, and the volume injected was 10.0 μL. Multiple reaction monitoring (MRM) scans were made with curtain gas at 30 for compound of Formula IX, 25 for compound of Formula VIII; collision gas at medium for compound of Formula IX, high for compound of Formula VIII; nebulizer gas and auxiliary gases at 60 and source temperature at 550° C. for both. Molecular ions were formed using an ion spray voltage (IS) of 4200 V (negative mode). Declustering potential (DP), entrance potential (EP), collision energy (CE), product ion mass, and cell exit potential (CXP) were optimized with the values of −20.0, −10.0, −30.0, and −15.0, respectively, for the mass pair 388.1/118.1 (compound of Formula IX). Declustering potential (DP), entrance potential (EP), collision energy (CE), product ion mass, and cell exit potential (CXP) were optimized with the values of −95.9, −9.94, −40.0, and −15.0, respectively, for the mass pair 354.0/118.1 (compound of Formula VIII).
Animals were sacrificed 24 h after the last dose to measure the steady state concentration.

[2] = tested on: postmenopausal women with SUI; test: Proof of concept clinical study: stress leaks per day by 3 day voiding diary; type: in vivo, human
Protocol: This was initially a single site, proof of concept feasibility study to describe the effect of the S-isomer of the compound of Formula IX (Compound IX) 3 mg in postmenopausal female subjects with SUI. However, data presented herein were from subjects seen at 3 separate sites.
Described is the effect of 12 weeks of treatment of Compound IX on the number of stress urinary incontinence episodes/day as assessed by the 3 day voiding diary. See leaks/day data in Tables 2 (individual subject data from all 3 sites), Tables 4-6 (mean stress leaks for sites 1, 2, and 3, respectively), and FIG. 10 (mean stress leaks/day across all sites). Further, see Table 3 for the durability of this response in subjects assessed at 16, 24, 32 and 40 weeks (and their pad weights).
Subjects were instructed to take one 3 mg softgel capsule per day by mouth, without regard to food intake.
This is a proof of concept feasibility study, so no power calculation was needed. Therefore, up to 35 subjects meeting inclusion/exclusion criteria would be recruited until the enrolled subjects have completed treatment. Further, durability was assessed at 40 weeks. Descriptive statistics were performed to explore changes in primary and secondary outcomes measures between baseline and weeks 12 (end of treatment) or 40 (durability). The primary efficacy measure was a reduction in the number of stress incontinence episodes/day. […] Safety will be determined by the number and type of adverse events reported during treatment, but is reported here from historical data from other clinical trials. Various imputation methods may be explored.
Change in frequency of daily stress urinary incontinence episodes from Baseline to Week 12 and durability at 40 weeks (28 weeks after Compound IX treatment is discontinued).
The data were collected from first 18 patients at 12 weeks and are derived from number of stress leaks reported by subjects in a 3 day voiding diary. […] Table 3 provides durability data of Compound IX for 18 patients and depicts that, for the first 9 subjects, this response was durable out to 40 weeks, i.e., 28 weeks (7 months) after treatment with Compound IX was discontinued. Data collection and analysis is ongoing.

pelvic floor muscles = test: Pelvic floor muscle weight, body weight, lean mass and histology in ovariectomized female mice; type: in vivo, mouse; conditions: OVX mice, 0.5-5 mg/kg/day p.o., 28 days; for pelvic floor muscle weight (cumulative COC, Pc and IL): vs OVX animals
Protocol: as §1
Pelvic floor muscles were paraffin embedded and sections were stained for collagen (Mason trichrome) and elastin (Van Gieson). Stains were evaluated by a pathologist for fiber length and stain intensity.
The pelvic floor muscles in mice are small making the unmagnified visualization difficult. In order to improve the resolution, the pelvic regions of the mice were immersed in formalin for two days after sacrifice before dissecting them under microscope along with precise weight measurement. The COC, Pc, and IL were isolated and weighed using a microbalance that has a resolution as low as a microgram.
Six to eight week old female mice (n=6-8/group) were ovariectomized (OVX) or sham operated. One month after OVX, when the serum hormone levels were at trough, body composition was measured by MRI and treatment was initiated with vehicle or a dose response of one of two SARMs. Twenty eight days after treatment initiation, body composition was again measured, animals were sacrificed, and pelvic floor muscles were weighed. Serum drug concentrations were measured by LC-MS/MS. Muscle sections were stained for collagen and elastin to evaluate the effect of SARMs on architecture. Data were analyzed by One Way ANOVA followed by Tukey test.

Row | SMILES | concentration at 24 h after the last dose ([1]; 0.5 mpk p.o.) | concentration at 24 h after the last dose ([1]; 2.5 mpk p.o.) | concentration at 24 h after the last dose ([1]; 5 mpk p.o.) | mean stress leaks/day at 40 weeks ([2]; N=9, 7 months after discontinuation) | Stress Leaks % Reduction ([2]; Site 1 (n = 10), week 12) | Stress Leaks % Reduction ([2]; Site 2 (n = 5), week 12) | Stress Leaks % Reduction ([2]; Site 3 (n = 2), week 12) | reduction of mean stress leaks/day from baseline to week 12 ([2]; all sites, 18 patients) | mean stress leaks/day at week 12 ([2]; all sites, 18 patients, baseline 5.17) | Leaks/Day (Week 12), stress leaks ([2]; individual patients, 3 mg/day p.o., week 12) | Durability of response: % Reduction in leaks/day Week 16 ([2]; individual patients, 4 weeks post-treatment) | Durability of response: % Reduction in leaks/day Week 24 ([2]; individual patients, 12 weeks post-treatment) | Durability of response: % Reduction in leaks/day Week 32 ([2]; individual patients, 20 weeks post-treatment) | Durability of response: % Reduction in leaks/day Week 40 ([2]; individual patients, 28 weeks post-treatment) | patients who were responders (50% or greater reduction in stress leaks/day) ([2]; week 12, 18 patients) | pelvic floor muscle weight (cumulative COC, Pc and IL) (pelvic floor muscles) | total lean body mass by MRI (pelvic floor muscles) | coccygeus (COC) muscle weight (pelvic floor muscles; vs OVX controls)
1 | C[C@](O)(COc1ccc(C#N)cc1)C(=O)Nc1ccc(C#N)c(C(F)(F)F)c1 [Compound IX, (S)—N-(4-Cyano-3-(trifluoromethyl)phenyl)-3-(4-cyanophenoxy)-2-hydroxy-2-methylpropanamide] | 0.862 µM | 3.85 µM | 6.07 µM | 0.63 leaks/day | 86% | 75% | 78% | 81% | 1.0 leaks/day and 1.00 leaks/day | 2.33 leaks/day and 0 leaks/day (3×) and 1 leaks/day (2×) and 1.33 leaks/day (2×) and 0.33 leaks/day (3×) and 1.66 leaks/day and 1.30 leaks/day and .67 leaks/day and 2.3 leaks/day and .33 leaks/day and 3 leaks/day and 0.67 leaks/day | 77% and 100% (5×) and 60% and 50% and 92% and 89% and 79% and 78% and 64% and 65% | 69% and 100% (6×) and 70% and 42% and 95% and 10% and 57% and 78% and 50% and 60% | 54% and 95% and 100% (3×) and 17% and 50% and 36% and 55% and 93% | 69% and 100% (5×) and 80% and 42% and 72% | all patients were responders and All 18 patients were responders and All 18 subjects and all 18 subjects and 18 of 18 | increase the weight of pelvic floor muscles |  | 
2 | C[C@](O)(COc1ccc(C#N)cc1)C(=O)Nc1ccc(C#N)c(Cl)c1 [VIII, (S)—N-(3-Chloro-4-cyanophenyl)-3-(4-cyanophenoxy)-2-hydroxy-2-methylpropanamide] | 0.429 µM | 2.44 µM | 4.1 µM |  |  |  |  |  |  |  |  |  |  |  |  | performed better than compound of Formula IX in increasing the muscle weights; also recorded: increase the weight of pelvic floor muscles | more potent than Compound IX in increasing lean mass | more potent than Compound IX

Source: patent publication US20180353460A1, “METHODS OF TREATING UROLOGICAL DISORDERS USING SARMs” (priority 2014, published 2018)
